Laboratory results taken from patent publication US7795303B2, “Active agents combination exhibiting insecticidal and acaricide properties” (Bayer CropScience AG, priority 2003, dated 2010).

Key:
[1] = test system: larvae of the mustard beetle (Phaedon cochleariae); experiment: Phaedon larvae test; format: in vivo; settings: 100 ppm, cabbage leaves dipped
Method: (§1) To produce a suitable preparation of active compound, 1 part by weight of active compound is mixed with the stated amounts of solvent and emulsifier, and the concentrate is diluted with emulsifier-containing water to the desired concentration.
Cabbage leaves (Brassica oleracea) are treated by being dipped into the preparation of active compound of the desired concentration and are populated with larvae of the mustard beetle (Phaedon cochleariae) while the leaves are still moist.
After the desired period of time, the kill in % is determined. 100% means that all beetle larvae have been killed; 0% means that none of the beetle larvae have been killed. The kill rates determined are calculated using the Colby formula (see page 32).

[2] = test system: caterpillars of the army worm (Spodoptera frugiperda); experiment: Spodoptera frugiperda test; format: in vivo; settings: 100 ppm, cabbage leaves dipped
Method: as §1
Cabbage leaves (Brassica oleracea) are treated by being dipped into the preparation of active compound of the desired concentration and are populated with caterpillars of the army worm (Spodoptera frugiperda) while the leaves are still moist.
After the desired period of time, the kill in % is determined. 100% means that all caterpillars have been killed; 0% means that none of the caterpillars have been killed. The kill rates determined are calculated using the Colby formula (see page 32).

Cc1cc(C)c(C2=C(OC(=O)CC(C)(C)C)C3(CCCC3)OC2=O)c(C)c1 [Compound (I-b-1)]
Kill rate in % after 6 d [1]: 30%
Kill rate in % after 6 d [2]: 5%
